# Laboratory results taken from BindingDB's records for doi:10.1016/j.jmb.2006.12.004 (University of Marburg, 2007).
# pIC50: −log10 of the molar value.
# Target: Aldo-keto reductase family 1 member B1 (Homo sapiens, UniProt P15121)
# Experiment: Enzyme Inhibition Assay
# Conditions: pH 6.2; 25 °C
# Description: The in vitro inhibitory activity of the candidate molecules was determined by recording the decrease of the NADPH absorbance upon enzymatic reduction of […]. The absorbance at 340 nm was monitored with a BMG plate reader. The program GraFit (Version 4.0) was used for fitting the IC50 values.
row,pIC50,SMILES
1,5.39,"O=C(O)CSc1nnc(-c2ccc([N+](=O)[O-])o2)o1 [2-{[5-(5-nitrofuran-2-yl)-1,3,4-oxadiazol-2-yl]sulfanyl}acetic acid]"
2,4.91,"O=C(O)CCCc1nc(-c2ccccn2)no1 [4-[3-(pyridin-2-yl)-1,2,4-oxadiazol-5-yl]butanoic acid]"
3,4.75,O=C(O)CCCc1nc(-c2ccc(Cl)cc2)no1 [Ligand 8]
4,6.28,O=C(O)CCCc1nc(-c2cccc([N+](=O)[O-])c2)[n-][o+]1 [Ligand 1]
